Measurements reported in US20130309389A1, “GLYCOSIDE BLENDS” (CARGILL, INCORPORATED, priority 2010, published 2013).

Experiment: Trained sensory panel rating of sweetness intensity and bitterness intensity of glycoside solutions
Type: in vivo, human
Details: panel average; for Bitterness: scale 1-15 (caffeine standards); for Sweetness: scale 1-15 (sucrose standards)
Protocol: A 20 person sensory panel was trained to scale sweetness and bitterness. Reference tasting standards were prepared by dissolving respective standard material (sucrose for sweetness and caffeine for bitterness) into reverse osmosis water according to the scale values shown in Table 1 below.
The trained sensory panel evaluated pure and blended solutions of rebaudioside A, rebaudioside B, and rebaudioside D at ratios and concentrations shown in the tables and in FIGS. 1-4. Solutions were made in Evian® water. All solutions were heated to 47° C. for 10 minutes to ensure that all the glycoside material was completely dissolved. The solutions were allowed to cool to room temperature before serving to the panelists. Each solution was given a random 3-digit code and was served to the panelists in random order. Panelists dispensed 1 mL of each solution into their mouths from a pipette. The panelists were then asked to rate the “sweetness intensity” and “bitterness intensity” of the solutions and mark their responses on an un-anchored, 15 cm line ballot. The length of the line directly corresponded to the scale values (1-15) on which the participants were trained.
In order to prepare the panelists' palates, a control solution of commercial rebiana (300 ppm) was the first sample each panelist tasted during a sitting. In between testing samples, the panelists cleansed their palates with water and apple slices. The panelists also waited 5 minutes between each sample. The panelists' responses were measured, compiled, and averaged for each sample.
The figures show the concentration of the blend tested (ppm) as well as the ratio of one glycoside to another in the blend as a percentage. Each blend's sweetness and bitterness was measured by the trained panel. The blend's sweetness is measured as SEV.
Each blend was then compared to an isosweet concentration of the pure glycosides. This value represents the concentration of the pure glycoside needed to achieve the SEV value measured for the blend. Thus, if the value is greater than that of the blend, then a larger concentration of the pure glycoside would be needed to achieve the same sweetness as achieved by the blend (at the lower dosage). The tables also include an isosweet bitterness value for each pure glycoside. This value represents the intensity of bitterness measured for that concentration of pure glycoside. The concentration of the isosweet solution of rebaudioside A, rebaudioside B, or rebaudioside D and the bitterness of the isosweet solutions were calculated by a fit of the pure component sensory response (table 2) to standard psycho-sensory models.

Compound C=C1C[C@@]23CC[C@H]4[C@@](C)(CCC[C@@]4(C)C(=O)O[C@@H]4O[C@H](CO)[C@@H](O)[C@H](O)[C@H]4O)[C@@H]2CC[C@]1(O[C@@H]1O[C@H](CO)[C@@H](O)[C@H](O[C@@H]2O[C@H](CO)[C@@H](O)[C@H](O)[C@H]2O)[C@H]1O[C@@H]1O[C@H](CO)[C@@H](O)[C@H](O)[C@H]1O)C3 [Reb A, Rebaudioside A] has a Bitterness (114 ppm in Evian water) of 4.2, a Sweetness (114 ppm in Evian water) of 3.1 and a Bitterness (229 ppm in Evian water) of 5.3. The Sweetness (229 ppm in Evian water) was 5.7, the Bitterness (343 ppm in Evian water) was 6.6 and the Sweetness (343 ppm in Evian water) was 7.4. It also gave a Bitterness (457 ppm in Evian water) of 7.0, a Sweetness (457 ppm in Evian water) of 8.4 and a Bitterness (571 ppm in Evian water) of 8.4. For the same compound, the Sweetness (571 ppm in Evian water) was 9.2, the Bitterness (800 ppm in Evian water) was 9.0 and the Sweetness (800 ppm in Evian water) was 10.1.

With C=C1C[C@@]23CC[C@H]4[C@@](C)(CCC[C@@]4(C)C(=O)O)[C@@H]2CC[C@]1(O[C@@H]1O[C@H](CO)[C@@H](O)[C@H](O[C@@H]2O[C@H](CO)[C@@H](O)[C@H](O)[C@H]2O)[C@H]1O[C@@H]1O[C@H](CO)[C@@H](O)[C@H](O)[C@H]1O)C3 [Reb B, Rebaudioside B] the Bitterness (57 ppm in Evian water) was 3.9, the Sweetness (57 ppm in Evian water) was 1.8 and the Bitterness (114 ppm in Evian water) was 4.2. For the same compound, the Sweetness (114 ppm in Evian water) was 2.7, the Bitterness (171 ppm in Evian water) was 4.3 and the Sweetness (171 ppm in Evian water) was 3.6. The Bitterness (286 ppm in Evian water) was 5.0, the Sweetness (286 ppm in Evian water) was 5.8 and the Bitterness (343 ppm in Evian water) was 5.1. The Sweetness (343 ppm in Evian water) was 6.5, the Bitterness (400 ppm in Evian water) was 5.8 and the Sweetness (400 ppm in Evian water) was 7.6.
